Counter-ions that a name gives are not always drawn. Like-named read-outs stand apart in the source and are kept apart here. Where a SMILES comes first, the peptide text is derived from it. [ ]: non-standard residue; d: D form. The star is where a group is joined. Sta = CC(C)C[C@H](N)[C@@H](O)CC(=O)O; Isovaleryl = CC(C)CC(=O)*
Key:
HIV protease [1] = settings: literature (Katoh et al., Nature 1987); cited from earlier work
core protein p24 = settings: high doses; cited from earlier work
[2] = in many cases require discontinuation of the therapy; cited from earlier work
HIV = settings: first strains of HIV; cited from earlier work
HIV protease [3] = molecular target: T1, HIV protease (Human immunodeficiency virus type 1 group M subtype B, UniProt P04585); test: Inhibition of HIV protease (cleavage of H-Ser-Phe-Asn-Phe-Opr-Gln-Ile-OH, HPLC); format: biochemical; settings: inhibitor concentration at which the cleavage rate is halved, read-out: IC50
T1 construct: HIV protease consists of 99 amino acids and is evidently split off by itself from the pol polyprotein
Method in brief: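 Substrate H-Ser-Phe-Asn-Phe-Opr-Gln-Ile-OH in MGTE buffer (MES, glycerol, Triton X-100, PMSF, pH 6) preincubated with inhibitor at 37 °C for 5-10 min, then reacted with protease at 35 °C for 2 h. RP18 HPLC at 215 nm; tetrapeptide fraction gives cleavage rate, IC50 where rate is halved.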

Row | SMILES | IC50 (HIV protease [3]; pH 6, 2 hours) [nM] | other results
1 | CC(C)CC(=O)N[C@H](C(=O)N[C@H](C(=O)N[C@@H](CC(C)C)[C@@H](O)CC(=O)N[C@@H](C)C(=O)N[C@@H](CC(C)C)[C@@H](O)CC(=O)O)C(C)C)C(C)C [Pepstatin A] (Isovaleryl-VV[Sta]A[Sta]-OH) |  | IC50 (HIV protease [1]): […]; reducing the formation of the core protein p24 (core protein p24): capable of reducing the formation of the core protein p24
2 | Cc1cn([C@H]2C[C@H](N=[N+]=[N-])[C@@H](CO)O2)c(=O)[nH]c1=O [Zidovudine (AZT)] |  | toxic side effects [2]: serious toxic side effects; sensitivity of HIV strains toward AZT (HIV): significantly lower sensitivity
3 | CC(C)[C@H](NC(=O)[C@@H](Cc1ccccc1)NC(=O)OC(C)(C)C)C(=O)N[C@@H](Cc1ccccc1)[C@H](O)[C@@H](O)[C@H](Cc1ccccc1)NC(=O)[C@@H](NC(=O)[C@@H](Cc1ccccc1)NC(=O)OC(C)(C)C)C(C)C [Example 63, N,N'-bis-<tert.-Butoxycarbonyl-D-phenylalanyl-L-valyl>-2S,5S-diamino-1,6-diphenylhexane-3S,4S-diol] | 6.5 | 
4 | CC(C)[C@H](NC(=O)[C@H](Cc1ccccc1)OC1O[C@H]([C@H](O)CO)[C@H](O)[C@@H]1O)C(=O)N[C@@H](Cc1ccccc1)[C@@H](O)[C@H](O)[C@H](Cc1ccccc1)NC(=O)[C@@H](NC(=O)[C@H](Cc1ccccc1)OC1O[C@H]([C@H](O)CO)[C@H](O)[C@@H]1O)C(C)C (stereo partly drawn) [Example 107, N,N'-bis-<O-(D-Mannofuranosyl)-2S-hydroxy-3-phenyl-propionyl-L-valyl>-2S,5S-diamino-1,6-diphenylhexane-3R,4R-diol] | 8.5 | 
5 | CC(C)[C@H](NC(=O)[C@H](Cc1cccc2ccccc12)CS(=O)(=O)C(C)(C)C)C(=O)N[C@@H](Cc1ccccc1)[C@@H](O)[C@H](O)[C@H](Cc1ccccc1)NC(=O)[C@@H](NC(=O)[C@H](Cc1cccc2ccccc12)CS(=O)(=O)C(C)(C)C)C(C)C [Example 13, N,N'-bis-<(2S-(1,1-Dimethylethylsulfonylmethyl)-3-(1-naphthyl)-propionyl)-L-valyl>-2S,5S-diamino-1,6-diphenylhexane-3R,4R-diol] |  | IC50 (HIV protease [3]; unit as printed for Ex. 13): 1.3 nM
6 | CC(C)[C@H](NC(=O)OC(C)(C)C)C(=O)N[C@@H](Cc1ccccc1)[C@H](O)[C@@H](O)[C@H](Cc1ccccc1)NC(=O)[C@@H](NC(=O)OC(C)(C)C)C(C)C [Example 8, N,N'-bis-(tert.-Butoxycarbonyl-L-valyl)-2S,5S-diamino-1,6-diphenylhexane-3S,4S-diol] |  | IC50 (HIV protease [3]; unit as printed for Ex. 8): 30000 nM
7 | CC(C)[C@H](NC(=O)[C@H](N)Cc1ccccc1)C(=O)N[C@@H](Cc1ccccc1)[C@H](O)[C@@H](O)[C@H](Cc1ccccc1)NC(=O)[C@@H](NC(=O)[C@H](N)Cc1ccccc1)C(C)C [Example 61, N,N'-bis-<D-Phenylalanyl-L-valyl>-2S,5S-diamino-1,6-diphenylhexane-3S,4S-diol dihydrochloride] | 400 | 

Second part, led by results:

Row | IC50 (HIV protease [3]; pH 6, 2 hours) [nM] | SMILES | other results
8 | 2200 | CC(C)[C@H](NC(=O)[C@H](CC1CCCCC1)NC(=O)OC(C)(C)C)C(=O)N[C@@H](Cc1ccccc1)[C@@H](O)[C@H](O)[C@H](Cc1ccccc1)NC(=O)[C@@H](NC(=O)[C@H](CC1CCCCC1)NC(=O)OC(C)(C)C)C(C)C [Example 115, N,N'-bis-<tert.-Butyloxycarbonyl-L-cyclohexylalanyl-L-valyl>-2S,5S-diamino-1,6-diphenylhexane-3R,4R-diol] | 
9 | 11 | Cc1ccc(S(=O)(=O)N[C@@H](Cc2ccc3ccccc3c2)C(=O)N[C@H](C(=O)N[C@@H](Cc2ccccc2)[C@@H](O)[C@H](O)[C@H](Cc2ccccc2)NC(=O)[C@@H](NC(=O)[C@H](Cc2ccc3ccccc3c2)NS(=O)(=O)c2ccc(C)cc2)C(C)C)C(C)C)cc1 [Example 124, N,N'-bis-<N-Tosyl-β-naphthylalanyl-L-valyl>-2S, 5S-diamino-1,6-diphenylhexane-3R, 4R-diol] | 
10 | 0.75 | CC(C)[C@H](NC(=O)[C@H](Cc1ccc2ccccc2c1)NS(C)(=O)=O)C(=O)N[C@@H](Cc1ccccc1)[C@@H](O)[C@H](O)[C@H](Cc1ccccc1)NC(=O)[C@@H](NC(=O)[C@H](Cc1ccc2ccccc2c1)NS(C)(=O)=O)C(C)C [Example 125, N,N,-bis-<N-Mesyl-β-naphthylalanyl-L-valyl>-2S,5S-diamino-1,6-diphenylhexane-3R,4R-diol] | 
11 | 100 | CC(C)[C@H](NC(=O)[C@H](Cc1cccc2ccccc12)CS(=O)(=O)C(C)(C)C)C(=O)NCCCCNC(=O)[C@@H](NC(=O)[C@H](Cc1cccc2ccccc12)CS(=O)(=O)C(C)(C)C)C(C)C [Example 146, N,N'-bis-<(2S-(1,1-Dimethylethylsulfonylmethyl)-3-(1-naphthyl)-propionyl)-L-valyl>-1,4-diaminobutane] | 
